Data from ChEMBL document CHEMBL3352021, “Naphthyridinone (NTD) integrase inhibitors 4. Investigating N1 acetamide substituent effects with C3 amide groups” (Bioorg Med Chem Lett, 2014).

Legend:
[1] = system: Human immunodeficiency virus; experiment: Antiviral activity against pseudotyped HIV by luciferase reporter gene assay; type: functional, organism-based; conditions: Human immunodeficiency virus 1
[2] = system: Human immunodeficiency virus; experiment: Antiviral activity against pseudotyped HIV by luciferase reporter gene assay in presence of human serum albumin; type: functional, organism-based; conditions: Human immunodeficiency virus 1
[3] = molecular target: Human immunodeficiency virus type 1 integrase (Human immunodeficiency virus 1, UniProt Q7ZJM1); experiment: Inhibition of recombinant HIV-1 integrase by strand-transfer assay
Chain of Human immunodeficiency virus type 1 integrase (Q7ZJM1 whole entry): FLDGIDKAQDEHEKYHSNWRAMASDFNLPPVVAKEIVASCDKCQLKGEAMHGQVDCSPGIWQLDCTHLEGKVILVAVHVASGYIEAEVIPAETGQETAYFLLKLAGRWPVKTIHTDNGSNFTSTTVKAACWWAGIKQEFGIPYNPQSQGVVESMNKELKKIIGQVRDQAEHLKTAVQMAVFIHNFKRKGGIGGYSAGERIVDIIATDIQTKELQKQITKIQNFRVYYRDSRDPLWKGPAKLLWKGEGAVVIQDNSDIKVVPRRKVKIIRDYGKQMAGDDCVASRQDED

[4] = Half life in cynomolgus monkey at 1 mg/kg, iv as bolus dose; type: ADME, organism-based, Macaca fascicularis; design: dose 1 mg/kg, route intravenous; conditions: in vivo
[5] = Oral bioavailability in cynomolgus monkey at 5 mg/kg; type: ADME, organism-based, Macaca fascicularis; conditions: in vivo
[6] = Plasma clearance in dog at 1 mg/kg, iv
[7] = Inhibition of CYP450 (unknown origin) up to 33 uM; type: ADME; conditions: human
[8] = system: Human immunodeficiency virus; experiment: Antiviral activity against HIV infected in PBMC assessed as protein-adjusted compound concentration; type: functional, organism-based; conditions: Human immunodeficiency virus 1
[9] = system: Human immunodeficiency virus; experiment: Antiviral activity against HIV infected in PBMC; type: functional, organism-based; conditions: Human immunodeficiency virus 1
[10] = Ratio of plasma concentration in rat at 5 mg/kg, po to IC90 for HIV infected in PBMC assessed as protein-adjusted compound concentration; type: ADME, organism-based; design: dose 5 mg/kg, route oral; conditions: in vivo
[11] = Plasma clearance in cynomolgus monkey at 1 mg/kg, iv
[12] = system: Human immunodeficiency virus; experiment: Ratio of IC50 for pseudotyped HIV by luciferase reporter gene assay in presence of human serum albumin to IC50 for pseudotyped HIV by luciferase reporter gene assay; type: functional
[13] = Ratio of plasma concentration in dog at 5 mg/kg, po to IC90 for HIV infected in PBMC assessed as protein-adjusted compound concentration; type: ADME, organism-based; design: dose 5 mg/kg, route oral; conditions: in vivo
[14] = Plasma clearance in rat at 1 mg/kg, iv
[15] = Half life in dog at 1 mg/kg, iv as bolus dose; type: ADME, organism-based, Canis lupus familiaris; design: dose 1 mg/kg, route intravenous; conditions: in vivo
[16] = Oral bioavailability in dog at 5 mg/kg; type: ADME, organism-based, Canis lupus familiaris; conditions: in vivo
[17] = Oral bioavailability in rat at 5 mg/kg; type: ADME, organism-based; conditions: in vivo
[18] = Half life in rat at 1 mg/kg, iv as bolus dose; type: ADME, organism-based; design: dose 1 mg/kg, route intravenous; conditions: in vivo
[19] = Ratio of plasma concentration in cynomolgus monkey at 5 mg/kg, po to IC90 for HIV infected in PBMC assessed as protein-adjusted compound concentration; type: ADME, organism-based; design: dose 5 mg/kg, route oral; conditions: in vivo
Cytochrome P450 1A2 = molecular target: T1, Cytochrome P450 1A2 (Homo sapiens, UniProt P05177); experiment: Inhibition of CYP1A2 (unknown origin) at 4.7 uM; type: ADME
T1 sequence (P05177 whole entry): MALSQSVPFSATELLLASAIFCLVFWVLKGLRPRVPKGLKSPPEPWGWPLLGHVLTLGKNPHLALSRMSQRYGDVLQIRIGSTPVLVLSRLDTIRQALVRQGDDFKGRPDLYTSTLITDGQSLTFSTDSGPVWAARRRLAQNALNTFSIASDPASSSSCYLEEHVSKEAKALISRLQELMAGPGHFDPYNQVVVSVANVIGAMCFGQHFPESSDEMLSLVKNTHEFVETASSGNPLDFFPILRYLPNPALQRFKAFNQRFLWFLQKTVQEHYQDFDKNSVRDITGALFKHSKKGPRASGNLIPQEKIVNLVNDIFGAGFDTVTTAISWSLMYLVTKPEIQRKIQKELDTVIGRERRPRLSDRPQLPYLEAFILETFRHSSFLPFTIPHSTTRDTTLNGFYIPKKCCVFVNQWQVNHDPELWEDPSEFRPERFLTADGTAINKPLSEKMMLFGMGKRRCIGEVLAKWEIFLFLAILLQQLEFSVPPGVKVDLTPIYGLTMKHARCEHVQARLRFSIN

| SMILES | IC50 [1] | IC50 [2] | IC50 [3] | also measured |
| --- | --- | --- | --- | --- |
| CCNC(=O)Cn1c(=O)c(C(=O)NC)c(O)c2ncc(Cc3ccc(F)cc3)cc21 | 2.9 nM | 11 nM | 8.2 nM |  |
| CNC(=O)c1c(O)c2ncc(Cc3ccc(F)cc3)cc2n(CC(N)=O)c1=O | 2.2 nM | 56 nM | 7.6 nM |  |
| CNC(=O)Cn1c(=O)c(C(=O)NC)c(O)c2ncc(Cc3ccc(F)cc3)cc21 | 3.3 nM | 22 nM | 9.3 nM |  |
| CNC(=O)c1c(O)c2ncc(Cc3ccc(F)cc3)cc2n(CC(=O)N(C)C)c1=O | 5.9 nM | 19 nM | 9.3 nM | half-life [4]: 5 h; bioavailability [5]: 60%; clearance [6]: 10.9 mL/min/kg; inhibition (INH) [7]: Not Active; IC50 [8]: 14 nM; IC90 [8]: 55 nM; IC50 [9]: 4.2 nM; Ratio [10]: 2.4; clearance [11]: 6.3 mL/min/kg; Ratio IC50 [12]: 3.3; Ratio [13]: 0.1; clearance [14]: 0.7 mL/min/kg; half-life [15]: 1.3 h; bioavailability [16]: 75%; bioavailability [17]: 69%; half-life [18]: 13.8 h; Ratio [19]: 0.7 |
| CCN(CC)C(=O)Cn1c(=O)c(C(=O)NC)c(O)c2ncc(Cc3ccc(F)cc3)cc21 | 9.2 nM | 17 nM | 4.4 nM |  |
| CNC(=O)c1c(O)c2ncc(Cc3ccc(F)cc3)cc2n(CC(=O)N2CCCC2)c1=O | 4.9 nM | 16 nM | 13 nM |  |
| CCCNC(=O)Cn1c(=O)c(C(=O)NC)c(O)c2ncc(Cc3ccc(F)cc3)cc21 | 5.5 nM | 14 nM | 9.2 nM |  |
| CNC(=O)c1c(O)c2ncc(Cc3ccc(F)cc3)cc2n(CC(=O)NC(C)C)c1=O | 3.2 nM | 12 nM | 7.8 nM |  |
| CNC(=O)c1c(O)c2ncc(Cc3ccc(F)cc3)cc2n(CC(=O)NC2CC2)c1=O | 2.6 nM | 7.6 nM | 4.4 nM |  |
| CNC(=O)c1c(O)c2ncc(Cc3ccc(F)cc3)cc2n(CC(=O)NC(C)(C)C)c1=O | 4.8 nM | 16 nM | 6.9 nM |  |
| CNC(=O)c1c(O)c2ncc(Cc3ccc(F)cc3)cc2n(CC(=O)NCC2CC2)c1=O | 5.9 nM | 33 nM | 8 nM |  |
| CNC(=O)c1c(O)c2ncc(Cc3ccc(F)cc3)cc2n(CC(=O)NCC(F)(F)F)c1=O | 1.5 nM | 15 nM | 7.1 nM |  |
| CNC(=O)c1c(O)c2ncc(Cc3ccc(F)cc3)cc2n(CC(=O)NCCOC)c1=O | 3.7 nM | 91 nM | 6.8 nM |  |
| CNC(=O)c1c(O)c2ncc(Cc3ccc(F)cc3)cc2n(CC(=O)NCCN(C)C)c1=O | 42 nM | 83 nM | 22 nM |  |
| CNC(=O)c1c(O)c2ncc(Cc3ccc(F)cc3)cc2n(CC(=O)NOC)c1=O | 3.3 nM | 13 nM | 5.7 nM |  |
| CN(C)C(=O)Cn1c(=O)c(C(=O)NC2CC2)c(O)c2ncc(Cc3ccc(F)cc3)cc21 | 9.3 nM | 193 nM | 3 nM |  |
| CN(C)C(=O)Cn1c(=O)c(C(=O)NCCO)c(O)c2ncc(Cc3ccc(F)cc3)cc21 | 17 nM | 35 nM | 5.7 nM |  |
| COCCNC(=O)c1c(O)c2ncc(Cc3ccc(F)cc3)cc2n(CC(=O)N(C)C)c1=O | 3.1 nM | 9 nM | 4 nM | half-life [4]: 5.4 h; bioavailability [5]: 31%; clearance [6]: 19.5 mL/min/kg; inhibition (INH) [7]: Not Active; IC50 [8]: 13 nM; IC90 [8]: 50 nM; IC50 [9]: 4.3 nM; Ratio [10]: 0.5; clearance [11]: 9.2 mL/min/kg; Ratio IC50 [12]: 2.9; clearance [14]: 3.6 mL/min/kg; half-life [15]: 1.8 h; bioavailability [16]: 7%; bioavailability [17]: 59%; half-life [18]: 12.5 h; Ratio [19]: 0.6 |
| C[C@H](CO)NC(=O)c1c(O)c2ncc(Cc3ccc(F)cc3)cc2n(CC(=O)N(C)C)c1=O | 31 nM | 40 nM | 8.6 nM |  |

| SMILES | IC50 [1] | IC50 [2] | IC50 [3] | also measured |
| --- | --- | --- | --- | --- |
| C[C@@H](CO)NC(=O)c1c(O)c2ncc(Cc3ccc(F)cc3)cc2n(CC(=O)N(C)C)c1=O | 17 nM | 24 nM | 7.1 nM |  |
| CN(C)C(=O)Cn1c(=O)c(C(=O)NC(C)(C)CO)c(O)c2ncc(Cc3ccc(F)cc3)cc21 | 3.6 nM | 82 nM | 6.5 nM |  |
| CN(C)C(=O)Cn1c(=O)c(C(=O)NC2(CO)CCCC2)c(O)c2ncc(Cc3ccc(F)cc3)cc21 | 7.2 nM | 24 nM | 23 nM |  |
| C[C@@H](O)CNC(=O)c1c(O)c2ncc(Cc3ccc(F)cc3)cc2n(CC(=O)N(C)C)c1=O | 11 nM | 70 nM | 9.2 nM |  |
| C[C@H](O)CNC(=O)c1c(O)c2ncc(Cc3ccc(F)cc3)cc2n(CC(=O)N(C)C)c1=O | 7.1 nM | 15 nM | 4.1 nM |  |
| CN(C)C(=O)Cn1c(=O)c(C(=O)NCCN2CCOCC2)c(O)c2ncc(Cc3ccc(F)cc3)cc21 | 19 nM | 25 nM | 8.6 nM |  |
| COCCNC(=O)c1c(O)c2ncc(Cc3ccc(F)cc3)cc2n(CC(N)=O)c1=O | 4.3 nM | 22 nM | 7.7 nM |  |
| CNC(=O)Cn1c(=O)c(C(=O)NCCOC)c(O)c2ncc(Cc3ccc(F)cc3)cc21 | 3 nM | 14 nM | 9 nM | half-life [4]: 2.3 h; bioavailability [5]: 19%; clearance [6]: 13.8 mL/min/kg; IC50 [8]: 10 nM; IC90 [8]: 41 nM; IC50 [9]: 2.3 nM; Ratio [10]: 56; clearance [11]: 2 mL/min/kg; Ratio IC50 [12]: 4.5; Ratio [13]: 0.1; clearance [14]: 0.5 mL/min/kg; half-life [15]: 1.2 h; bioavailability [16]: 111%; inhibition (INH) (Cytochrome P450 1A2): Active; bioavailability [17]: 51%; half-life [18]: 3.7 h; Ratio [19]: 0.8 |
| COCCNC(=O)c1c(O)c2ncc(Cc3ccc(F)cc3)cc2n(CC(=O)NC2CC2)c1=O | 3 nM | 18 nM | 7.3 nM |  |
| COCCNC(=O)c1c(O)c2ncc(Cc3ccc(F)cc3)cc2n(CC(=O)NC2CCC2)c1=O | 3.3 nM | 39 nM | 8.5 nM |  |
| COCCNC(=O)c1c(O)c2ncc(Cc3ccc(F)cc3)cc2n(CC(=O)NC(C)C)c1=O | 3.2 nM | 57 nM | 6.2 nM |  |
| COCCNC(=O)c1c(O)c2ncc(Cc3ccc(F)cc3)cc2n(CC(=O)NCC(F)(F)F)c1=O | 2.4 nM | 20 nM | 11 nM |  |
| COCCNC(=O)c1c(O)c2ncc(Cc3ccc(F)cc3)cc2n(CC(=O)NCCN(C)C)c1=O | 27 nM | 124 nM | 45 nM |  |
| COCCNC(=O)c1c(O)c2ncc(Cc3ccc(F)cc3)cc2n(CC(=O)N2CCCC2)c1=O | 3.8 nM | 11 nM | 42 nM |  |
| COCCNC(=O)c1c(O)c2ncc(Cc3ccc(F)cc3)cc2n(CC(=O)N2CCCCC2)c1=O | 3.6 nM | 12 nM | 4.7 nM |  |
| COCCNC(=O)c1c(O)c2ncc(Cc3ccc(F)cc3)cc2n(CC(=O)N2CCOCC2)c1=O | 3.5 nM | 6.7 nM | 7.6 nM |  |
| COCCNC(=O)c1c(O)c2ncc(Cc3ccc(F)cc3)cc2n(CC(=O)N2CCN(C)CC2)c1=O | 5.3 nM | 13 nM | 28 nM |  |
| Cn1c(=O)c(C(=O)NCCO)c(O)c2ncc(Cc3ccc(F)cc3)cc21 [GSK-364735] | 1.7 nM |  | 8.1 nM |  |
